Results from BindingDB's records for patent US11026923 (H. Lundbeck, 2021).

How the values were obtained:
Assay in all cases: Inhibition Assay
[1] = molecular target: Dual specificity calcium/calmodulin-dependent 3',5'-cyclic nucleotide phosphodiesterase 1A (Human, UniProt P54750)
Experimental: (§1) Reactions were initiated by addition of the cyclic nucleotide substrate, and reactions were allowed to proceed for 1 hr at room temperature before being terminated through mixing with 20 uL (0.2 mg) yttrium silicate SPA beads (PerkinElmer).

[2] = molecular target: Dual specificity calcium/calmodulin-dependent 3',5'-cyclic nucleotide phosphodiesterase 1C (Human, UniProt Q14123)
Experimental: as §1

[3] = molecular target: Dual specificity calcium/calmodulin-dependent 3',5'-cyclic nucleotide phosphodiesterase 1B (Homo sapiens, UniProt Q01064)
Chain of Dual specificity calcium/calmodulin-dependent 3',5'-cyclic nucleotide phosphodiesterase 1B (Q01064 whole entry): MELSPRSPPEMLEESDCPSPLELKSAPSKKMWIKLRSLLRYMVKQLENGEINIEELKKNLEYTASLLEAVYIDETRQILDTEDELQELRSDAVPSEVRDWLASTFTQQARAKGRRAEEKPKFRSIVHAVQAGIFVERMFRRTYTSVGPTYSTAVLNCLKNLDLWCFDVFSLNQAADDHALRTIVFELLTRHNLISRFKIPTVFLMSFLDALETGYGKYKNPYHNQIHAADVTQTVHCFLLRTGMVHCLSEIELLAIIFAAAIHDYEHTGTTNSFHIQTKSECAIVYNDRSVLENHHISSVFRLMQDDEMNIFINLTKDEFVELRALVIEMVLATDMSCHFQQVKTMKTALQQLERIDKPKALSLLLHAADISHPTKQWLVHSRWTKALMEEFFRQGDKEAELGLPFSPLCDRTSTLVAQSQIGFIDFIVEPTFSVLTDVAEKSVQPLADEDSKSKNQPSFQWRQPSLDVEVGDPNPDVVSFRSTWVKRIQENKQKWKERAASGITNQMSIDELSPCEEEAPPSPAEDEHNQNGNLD
Experimental: as §1

Chain of Dual specificity calcium/calmodulin-dependent 3',5'-cyclic nucleotide phosphodiesterase 1C (Q14123 whole entry): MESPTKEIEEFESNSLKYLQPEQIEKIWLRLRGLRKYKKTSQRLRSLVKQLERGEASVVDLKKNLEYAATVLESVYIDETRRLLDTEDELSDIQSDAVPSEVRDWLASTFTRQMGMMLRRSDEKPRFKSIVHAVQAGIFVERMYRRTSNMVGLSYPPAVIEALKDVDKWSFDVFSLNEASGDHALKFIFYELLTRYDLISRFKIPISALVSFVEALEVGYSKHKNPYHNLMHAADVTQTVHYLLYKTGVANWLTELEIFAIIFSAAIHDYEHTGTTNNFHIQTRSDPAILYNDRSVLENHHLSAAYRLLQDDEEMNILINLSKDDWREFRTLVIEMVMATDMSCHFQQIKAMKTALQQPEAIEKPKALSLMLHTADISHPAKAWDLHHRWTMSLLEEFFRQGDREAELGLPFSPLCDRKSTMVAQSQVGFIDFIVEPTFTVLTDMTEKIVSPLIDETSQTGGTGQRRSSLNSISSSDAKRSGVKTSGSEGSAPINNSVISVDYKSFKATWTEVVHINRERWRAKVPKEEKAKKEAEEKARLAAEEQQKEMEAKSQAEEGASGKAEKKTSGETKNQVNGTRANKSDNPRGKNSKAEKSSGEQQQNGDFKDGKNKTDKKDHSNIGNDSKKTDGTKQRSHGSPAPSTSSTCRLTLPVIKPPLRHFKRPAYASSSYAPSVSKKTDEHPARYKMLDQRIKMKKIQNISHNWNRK
Chain of Dual specificity calcium/calmodulin-dependent 3',5'-cyclic nucleotide phosphodiesterase 1A (P54750 whole entry): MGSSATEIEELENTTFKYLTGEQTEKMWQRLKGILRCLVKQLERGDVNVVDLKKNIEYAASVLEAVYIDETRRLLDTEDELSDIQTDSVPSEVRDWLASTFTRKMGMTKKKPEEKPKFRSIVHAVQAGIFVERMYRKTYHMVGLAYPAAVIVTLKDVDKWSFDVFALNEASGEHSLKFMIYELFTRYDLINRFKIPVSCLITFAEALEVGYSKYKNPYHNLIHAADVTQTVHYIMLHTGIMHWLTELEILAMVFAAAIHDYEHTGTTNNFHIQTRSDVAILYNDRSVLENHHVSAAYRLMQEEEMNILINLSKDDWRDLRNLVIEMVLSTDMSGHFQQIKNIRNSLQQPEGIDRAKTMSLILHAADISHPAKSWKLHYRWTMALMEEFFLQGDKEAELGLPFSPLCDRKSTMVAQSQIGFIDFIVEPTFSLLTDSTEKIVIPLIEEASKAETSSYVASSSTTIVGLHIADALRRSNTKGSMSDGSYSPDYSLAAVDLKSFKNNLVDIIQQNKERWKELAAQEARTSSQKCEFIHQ

Compound	IC50 [1] [nM]	IC50 [2] [nM]	IC50 [3] [nM]
CC1=NN(C(C)C)/C(=C(/C=C/c2cn(C)nc2C)NCc2cnn(C)c2)C1 [US11026923, Example 61]	550	680	120
COc1ncccc1/C=C/C(NCc1cnn(C)c1)=C1\CC(C)=NN1C(C)C [US11026923, Example 62]	16	21	2.4
COc1ccccc1/C=C/C(NCc1cnn(C)c1)=C1\CC(C)=NN1C(C)C [US11026923, Example 63]	64	20	9.4
CC1=NN(C(C)C)/C(=C(/C=C/c2ccccc2)NCc2cnn(C)c2)C1 [US11026923, Example 64]	52	47	12
CC1=NN(C(C)C)/C(=C(/C=C/c2ccsc2C)NCc2cnn(C)c2)C1 [US11026923, Example 65]	7.9		1.2
CC1=NN(C(C)C)/C(=C(/C=C/c2cnn(C)c2C)NCc2cnn(C)c2)C1 [US11026923, Example 66]	210	220	59
